Experimental data taken from ChEMBL document CHEMBL3525960, “Role of catechol-O-methyltransferase in the disposition of luteolin in rats” (Drug Metab Dispos, 2011).

What was measured:
Rattus norvegicus = test: Clearance in Sprague-Dawley rat treated with luteolin at 6.5 mg/kg, iv; assay type: ADME, organism-based; set-up: dose 6.5 mg/kg, route intravenous; conditions: in vivo
[1] = Half life in Sprague-Dawley rat treated with luteolin at 6.5 mg/kg, iv; assay type: ADME, organism-based; set-up: dose 6.5 mg/kg, route intravenous; conditions: in vivo
Liver microsome = test: Stability in Sprague-Dawley rat liver microsomes at 10 uM after 10 to 30 mins by HPLC analysis; assay type: ADME
[2] = Cmax in Sprague-Dawley rat treated with luteolin at 6.5 mg/kg, iv; assay type: ADME, organism-based; set-up: dose 6.5 mg/kg, route intravenous; conditions: in vivo
Liver [3] = test: Drug metabolism in Sprague-Dawley rat liver homogenate treated with luteolin at 20 uM after 20 to 60 mins in presence of COMT inhibitor entacapone; assay type: ADME, tissue-based; conditions: tissue homogenate
[4] = Drug metabolism in Sprague-Dawley rat erythrocytes homogenate treated with luteolin at 20 uM after 20 to 60 mins in presence of COMT inhibitor entacapone; assay type: ADME, cell-based; conditions: erythrocyte
[5] = Mean residence time (0 to infinity) in Sprague-Dawley rat treated with luteolin at 6.5 mg/kg, iv; assay type: ADME, organism-based; set-up: dose 6.5 mg/kg, route intravenous; conditions: in vivo
[6] = Volume of distribution in Sprague-Dawley rat treated with luteolin at 6.5 mg/kg, iv; assay type: ADME, organism-based; set-up: dose 6.5 mg/kg, route intravenous; conditions: in vivo
Small intestine [7] = test: Drug metabolism in Sprague-Dawley rat small intestine homogenate treated with luteolin at 20 uM after 20 to 60 mins in presence of COMT inhibitor entacapone; assay type: ADME, tissue-based; conditions: tissue homogenate
Kidney [8] = test: Drug metabolism in Sprague-Dawley rat kidney homogenate treated with luteolin at 20 uM after 20 to 60 mins; assay type: ADME, tissue-based; conditions: tissue homogenate
[9] = AUC (0 to t) in Sprague-Dawley rat treated with luteolin at 6.5 mg/kg, iv; assay type: ADME, organism-based; set-up: dose 6.5 mg/kg, route intravenous; conditions: plasma
Kidney [10] = test: Drug metabolism in Sprague-Dawley rat kidney homogenate treated with luteolin at 20 uM after 20 to 60 mins in presence of COMT inhibitor entacapone; assay type: ADME, tissue-based; conditions: tissue homogenate
[11] = Drug excretion in Sprague-Dawley rat urine treated with luteolin at 6.5 mg/kg, iv after 24 hrs; assay type: ADME, organism-based; set-up: dose 6.5 mg/kg, route intravenous; conditions: read-out: Drug excretion
[12] = AUC (0 to infinity) in Sprague-Dawley rat treated with luteolin at 6.5 mg/kg, iv; assay type: ADME, organism-based; set-up: time infinity, dose 6.5 mg/kg, route intravenous; conditions: plasma
Lung [13] = test: Drug metabolism in Sprague-Dawley rat lung homogenate treated with luteolin at 20 uM after 20 to 60 mins in presence of COMT inhibitor entacapone; assay type: ADME, tissue-based; conditions: tissue homogenate
Liver [14] = test: Drug metabolism in Sprague-Dawley rat liver homogenate treated with luteolin at 20 uM after 20 to 60 mins; assay type: ADME, tissue-based; conditions: tissue homogenate
Lung [15] = test: Drug metabolism in Sprague-Dawley rat lung homogenate treated with luteolin at 20 uM after 20 to 60 mins; assay type: ADME, tissue-based; conditions: tissue homogenate
Small intestine [16] = test: Drug metabolism in Sprague-Dawley rat small intestine homogenate treated with luteolin at 20 uM after 20 to 60 mins; assay type: ADME, tissue-based; conditions: tissue homogenate
[17] = Drug recovery in Sprague-Dawley rat urine assessed as retention time treated with luteolin at 6.5 mg/kg, iv by reverse-phase HPLC method; assay type: ADME, organism-based; set-up: dose 6.5 mg/kg, route intravenous; conditions: in vivo
[18] = Drug excretion in Sprague-Dawley rat urine treated with luteolin at 6.5 mg/kg, iv after 24 hrs co-treated with COMT inhibitor entacapone; assay type: ADME, organism-based; set-up: dose 6.5 mg/kg, route intravenous; conditions: read-out: Drug excretion
[19] = Mean residence time (0 to t) in Sprague-Dawley rat treated with luteolin at 6.5 mg/kg, iv; assay type: ADME, organism-based; set-up: dose 6.5 mg/kg, route intravenous; conditions: in vivo
[20] = Drug metabolism in Sprague-Dawley rat erythrocytes homogenate treated with luteolin at 20 uM after 20 to 60 mins; assay type: ADME, cell-based; conditions: erythrocyte

SMILES: COc1cc(-c2cc(=O)c3c(O)cc(O)cc3o2)ccc1O [CHRYSOERIOL]
- clearance (Rattus norvegicus): 49 mL/min/kg
- half-life [1]: 1.57 h
- Stability (Liver microsome): Unstable
- Cmax [2]: 2060 ng/mL
- Drug metabolism (Liver [3]): metabolite_not_detected
- Drug metabolism [4]: metabolite_not_detected
- MRT inf [5]: 1.76 h
- Vd [6]: 6.34 L/kg
- Drug metabolism (Small intestine [7]): metabolite_not_detected
- Drug metabolism (Kidney [8]): metabolite_detected
- AUC(0-t) [9]: 2090 ng·h/mL
- Drug metabolism (Kidney [10]): metabolite_not_detected
- dose excreted at 24 h [11]: 1.92%
- AUC(0-inf) [12]: 2280 ng·h/mL
- Drug metabolism (Lung [13]): metabolite_not_detected
- Drug metabolism (Liver [14]): metabolite_detected
- Drug metabolism (Lung [15]): metabolite_detected
- Drug metabolism (Small intestine [16]): metabolite_detected
- Retention_time [17]: 29.35 min
- dose excreted at 24 h [18]: 0.451%
- MRT last [19]: 1.24 h
- Drug metabolism [20]: metabolite_detected
